Here are results for twelve compounds from ChEMBL document CHEMBL1743201, “Casarett and Doull's Toxicology The Basic Science of Poisons, 7th edition” (2008).

Structures are written as SMILES.

What all share (format): ADME
Data set [1] deals with T1, Cytochrome P450 2A6 (Homo sapiens, UniProt P11509).
T1 sequence (P11509 whole entry): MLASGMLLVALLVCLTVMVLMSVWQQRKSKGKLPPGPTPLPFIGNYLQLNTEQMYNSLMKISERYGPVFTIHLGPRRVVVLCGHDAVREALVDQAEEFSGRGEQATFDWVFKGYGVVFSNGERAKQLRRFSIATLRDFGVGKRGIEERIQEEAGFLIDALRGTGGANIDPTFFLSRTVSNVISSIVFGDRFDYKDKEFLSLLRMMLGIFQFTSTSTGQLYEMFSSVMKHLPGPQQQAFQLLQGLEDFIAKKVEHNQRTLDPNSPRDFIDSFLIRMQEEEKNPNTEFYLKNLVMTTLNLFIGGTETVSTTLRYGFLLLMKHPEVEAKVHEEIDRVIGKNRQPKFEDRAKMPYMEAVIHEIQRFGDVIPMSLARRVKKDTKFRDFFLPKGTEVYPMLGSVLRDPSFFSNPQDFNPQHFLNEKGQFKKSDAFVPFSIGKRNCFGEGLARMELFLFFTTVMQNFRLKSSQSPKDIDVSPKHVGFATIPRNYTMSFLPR
Nature of the data set: Clinically relevant substrates of human liver microsomal P450 enzymes, isoform CYP2A6. Particulars: microsomes. For orientation: Microsomes from liver hold many membrane-bound enzymes, among them those of drug oxidation.

In data set [2] the target is T1, Cytochrome P450 2A6. Nature of the data set: Clinically relevant inducers of human liver microsomal P450 enzymes, isoform CYP2A6. Particulars: microsomes.
The next data set has as its target Sulfotransferase 1C4 (Homo sapiens, UniProt O75897). Briefly: Major substrate of human cytosolic sulfotransferase SULT1C4.
The next data set has as its target Sulfotransferase 1A1 (Homo sapiens, UniProt P50225). Nature of the data set: Major substrate of human cytosolic sulfotransferase SULT1A1.
The target of data set [3] is T2, UDP-glucuronosyltransferase 1A6 (Homo sapiens, UniProt P19224).
T2 sequence (P19224 whole entry): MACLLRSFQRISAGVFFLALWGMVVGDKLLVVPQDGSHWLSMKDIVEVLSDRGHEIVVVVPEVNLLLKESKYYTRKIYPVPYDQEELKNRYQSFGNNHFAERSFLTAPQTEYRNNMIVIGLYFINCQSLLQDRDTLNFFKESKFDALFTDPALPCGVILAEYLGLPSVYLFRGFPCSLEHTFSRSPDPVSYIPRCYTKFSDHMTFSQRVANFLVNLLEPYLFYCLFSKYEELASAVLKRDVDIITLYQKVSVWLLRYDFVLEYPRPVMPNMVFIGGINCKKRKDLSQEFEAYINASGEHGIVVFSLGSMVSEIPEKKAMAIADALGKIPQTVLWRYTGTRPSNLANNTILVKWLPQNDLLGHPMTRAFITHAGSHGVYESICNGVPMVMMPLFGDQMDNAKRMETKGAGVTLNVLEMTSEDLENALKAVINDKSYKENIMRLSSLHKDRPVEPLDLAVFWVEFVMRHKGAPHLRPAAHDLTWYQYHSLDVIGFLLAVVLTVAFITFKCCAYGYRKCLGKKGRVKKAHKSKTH
Briefly: Substrate of human UDP-glucuronosyltransferase UGT1A6.

The next data set concerns the target T3, Sulfotransferase 4A1 (Homo sapiens, UniProt Q9BR01).
T3 sequence (Q9BR01 whole entry): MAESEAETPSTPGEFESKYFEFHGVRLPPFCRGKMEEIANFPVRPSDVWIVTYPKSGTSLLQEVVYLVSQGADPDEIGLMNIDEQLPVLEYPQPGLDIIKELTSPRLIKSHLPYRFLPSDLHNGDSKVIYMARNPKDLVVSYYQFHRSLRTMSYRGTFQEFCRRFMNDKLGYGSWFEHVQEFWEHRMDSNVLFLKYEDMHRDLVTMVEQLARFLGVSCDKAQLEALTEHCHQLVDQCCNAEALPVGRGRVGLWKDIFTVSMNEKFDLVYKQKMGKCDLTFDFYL
Nature of the data set: Major substrate of human cytosolic sulfotransferase SULT4A1_v1.

The next data set addresses Sulfotransferase 1A2 (Homo sapiens, UniProt P50226). Briefly: Major substrate of human cytosolic sulfotransferase SULT1A2.
Another data set concerns the target Sulfotransferase 1C2 (Homo sapiens, UniProt O00338). Briefly: Major substrate of human cytosolic sulfotransferase SULT1C2.
In a further data set the target is Sulfotransferase 1A3 (Homo sapiens, UniProt P0DMM9). Briefly: Major substrate of human cytosolic sulfotransferase SULT1A3.
In a further data set the target is Sulfotransferase 1B1 (Homo sapiens, UniProt O43704). Nature of the data set: Major substrate of human cytosolic sulfotransferase SULT1B1.
Data set [4] deals with T4, Cytochrome P450 2E1 (Homo sapiens, UniProt P05181). Nature of the data set: Clinically relevant substrates of human liver microsomal P450 enzymes, isoform CYP2E1. Particulars: microsomes.
For another data set, the target named is T5, Cytochrome P450 2B6 (Homo sapiens, UniProt P20813).
T5 sequence (P20813 whole entry): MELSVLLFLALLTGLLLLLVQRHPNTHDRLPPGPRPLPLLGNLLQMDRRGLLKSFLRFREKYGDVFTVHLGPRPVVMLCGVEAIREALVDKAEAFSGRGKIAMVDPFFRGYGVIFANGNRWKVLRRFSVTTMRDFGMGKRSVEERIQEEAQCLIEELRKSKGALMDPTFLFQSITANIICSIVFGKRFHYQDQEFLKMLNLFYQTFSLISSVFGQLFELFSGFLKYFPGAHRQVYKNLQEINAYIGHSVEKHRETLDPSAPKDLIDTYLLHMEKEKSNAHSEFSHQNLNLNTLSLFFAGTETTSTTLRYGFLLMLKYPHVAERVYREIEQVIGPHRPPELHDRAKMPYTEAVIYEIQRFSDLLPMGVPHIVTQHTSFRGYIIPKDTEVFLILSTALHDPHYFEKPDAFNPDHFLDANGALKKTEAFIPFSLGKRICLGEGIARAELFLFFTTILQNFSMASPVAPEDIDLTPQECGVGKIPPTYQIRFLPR
Nature of the data set: Clinically relevant inducers of human liver microsomal P450 enzymes, isoform CYP2B6. The note with it: microsomes.

Another data set concerns the target Cytochrome P450 2C19 (Homo sapiens, UniProt P33261). Nature of the data set: Clinically relevant inducers of human liver microsomal P450 enzymes, isoform CYP2C19. The note with it: microsomes.
For a further data set, the target named is T6, Cytochrome P450 2C8 (Homo sapiens, UniProt P10632).
T6 sequence (P10632 whole entry): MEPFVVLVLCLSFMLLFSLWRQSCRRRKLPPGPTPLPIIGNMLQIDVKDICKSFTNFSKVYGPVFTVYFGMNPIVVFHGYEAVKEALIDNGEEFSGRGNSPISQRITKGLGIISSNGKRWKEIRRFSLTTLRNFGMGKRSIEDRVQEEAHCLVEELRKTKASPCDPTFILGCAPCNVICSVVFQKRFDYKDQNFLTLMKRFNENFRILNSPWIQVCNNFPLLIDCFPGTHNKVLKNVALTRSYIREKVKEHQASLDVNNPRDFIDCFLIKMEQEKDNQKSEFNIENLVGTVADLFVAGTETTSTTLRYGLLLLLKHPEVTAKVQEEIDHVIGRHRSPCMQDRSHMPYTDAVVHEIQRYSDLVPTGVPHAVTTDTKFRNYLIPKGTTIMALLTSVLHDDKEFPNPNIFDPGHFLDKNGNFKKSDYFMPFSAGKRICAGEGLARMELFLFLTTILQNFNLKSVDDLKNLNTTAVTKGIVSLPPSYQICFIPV
Nature of the data set: Clinically relevant inducers of human liver microsomal P450 enzymes, isoform CYP2C8. Particulars: microsomes.

A further data set deals with T7, Sulfotransferase 1E1 (Homo sapiens, UniProt P49888).
T7 sequence (P49888 whole entry): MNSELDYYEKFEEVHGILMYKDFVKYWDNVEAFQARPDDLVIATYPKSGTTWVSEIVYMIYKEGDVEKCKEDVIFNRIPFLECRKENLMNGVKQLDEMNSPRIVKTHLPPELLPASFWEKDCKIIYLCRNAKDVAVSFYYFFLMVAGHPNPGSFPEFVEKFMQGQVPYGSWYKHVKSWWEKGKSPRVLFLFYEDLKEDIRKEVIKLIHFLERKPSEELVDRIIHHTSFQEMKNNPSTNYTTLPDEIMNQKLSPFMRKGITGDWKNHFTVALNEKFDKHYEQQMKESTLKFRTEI
Nature of the data set: Major substrate of human cytosolic sulfotransferase SULT1E1.

Data set [5] concerns the target T8, Sulfotransferase 2B1 (Homo sapiens, UniProt O00204).
T8 sequence (O00204 whole entry): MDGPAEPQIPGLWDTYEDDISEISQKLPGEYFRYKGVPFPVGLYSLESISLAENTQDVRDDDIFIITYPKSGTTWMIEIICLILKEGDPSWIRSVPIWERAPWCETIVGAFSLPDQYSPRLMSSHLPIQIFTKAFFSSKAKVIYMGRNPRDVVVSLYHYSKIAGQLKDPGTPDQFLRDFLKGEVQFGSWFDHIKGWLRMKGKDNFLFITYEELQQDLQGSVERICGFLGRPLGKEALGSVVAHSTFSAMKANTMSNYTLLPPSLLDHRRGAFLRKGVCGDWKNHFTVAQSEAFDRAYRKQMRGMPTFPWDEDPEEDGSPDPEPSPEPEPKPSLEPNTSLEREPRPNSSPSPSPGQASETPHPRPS
Briefly: Major substrate of human cytosolic sulfotransferase SULT2B1_v1.

The next data set concerns the target T9, Sulfotransferase 2A1 (Homo sapiens, UniProt Q06520).
T9 sequence (Q06520 whole entry): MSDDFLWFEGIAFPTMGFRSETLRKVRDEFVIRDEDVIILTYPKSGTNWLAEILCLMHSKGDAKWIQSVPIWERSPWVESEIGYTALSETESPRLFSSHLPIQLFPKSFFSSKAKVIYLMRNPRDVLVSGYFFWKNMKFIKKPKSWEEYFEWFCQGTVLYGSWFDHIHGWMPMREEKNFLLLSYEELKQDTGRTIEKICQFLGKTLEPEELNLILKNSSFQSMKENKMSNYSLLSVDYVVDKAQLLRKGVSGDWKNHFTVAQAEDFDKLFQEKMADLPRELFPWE
Nature of the data set: Major substrate of human cytosolic sulfotransferase SULT2A1.

The target in data set [6] is T8, Sulfotransferase 2B1. Nature of the data set: Major substrate of human cytosolic sulfotransferase SULT2B1_v2.
The target in data set [7] is T4, Cytochrome P450 2E1. Briefly: Clinically relevant inducers of human liver microsomal P450 enzymes, isoform CYP2E1. The note with it: microsomes.

T4 sequence (P05181 whole entry, canonical isoform): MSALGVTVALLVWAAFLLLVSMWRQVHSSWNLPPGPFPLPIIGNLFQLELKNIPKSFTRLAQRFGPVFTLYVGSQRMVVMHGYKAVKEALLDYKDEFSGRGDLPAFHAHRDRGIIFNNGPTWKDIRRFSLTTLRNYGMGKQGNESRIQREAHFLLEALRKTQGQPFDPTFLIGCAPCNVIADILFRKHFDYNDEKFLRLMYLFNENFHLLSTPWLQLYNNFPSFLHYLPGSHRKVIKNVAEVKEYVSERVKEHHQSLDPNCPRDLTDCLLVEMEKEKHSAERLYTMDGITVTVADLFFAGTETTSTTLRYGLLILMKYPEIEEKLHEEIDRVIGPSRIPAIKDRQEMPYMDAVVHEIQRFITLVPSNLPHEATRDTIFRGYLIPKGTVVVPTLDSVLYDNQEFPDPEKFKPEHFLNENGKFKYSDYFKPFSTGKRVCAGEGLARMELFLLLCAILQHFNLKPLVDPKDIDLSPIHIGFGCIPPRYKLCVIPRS
Sulfotransferase 1A2, sequence (P50226 whole entry): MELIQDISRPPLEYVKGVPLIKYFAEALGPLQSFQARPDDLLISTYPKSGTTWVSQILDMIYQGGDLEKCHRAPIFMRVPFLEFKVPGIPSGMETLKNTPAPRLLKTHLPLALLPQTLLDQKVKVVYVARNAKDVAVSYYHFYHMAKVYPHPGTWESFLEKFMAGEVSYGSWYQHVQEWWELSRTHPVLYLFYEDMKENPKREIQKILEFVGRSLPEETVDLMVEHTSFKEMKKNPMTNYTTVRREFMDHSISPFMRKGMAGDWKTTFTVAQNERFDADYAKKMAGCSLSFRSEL
Sulfotransferase 1C4, sequence (O75897 whole entry): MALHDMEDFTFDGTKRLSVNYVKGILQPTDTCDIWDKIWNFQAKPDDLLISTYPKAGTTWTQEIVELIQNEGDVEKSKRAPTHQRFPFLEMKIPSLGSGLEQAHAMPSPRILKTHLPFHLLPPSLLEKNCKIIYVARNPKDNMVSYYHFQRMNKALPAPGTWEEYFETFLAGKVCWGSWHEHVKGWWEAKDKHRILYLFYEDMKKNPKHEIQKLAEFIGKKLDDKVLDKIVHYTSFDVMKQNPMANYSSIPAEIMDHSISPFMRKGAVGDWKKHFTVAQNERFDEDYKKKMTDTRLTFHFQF
Sulfotransferase 1C2, sequence (O00338 whole entry): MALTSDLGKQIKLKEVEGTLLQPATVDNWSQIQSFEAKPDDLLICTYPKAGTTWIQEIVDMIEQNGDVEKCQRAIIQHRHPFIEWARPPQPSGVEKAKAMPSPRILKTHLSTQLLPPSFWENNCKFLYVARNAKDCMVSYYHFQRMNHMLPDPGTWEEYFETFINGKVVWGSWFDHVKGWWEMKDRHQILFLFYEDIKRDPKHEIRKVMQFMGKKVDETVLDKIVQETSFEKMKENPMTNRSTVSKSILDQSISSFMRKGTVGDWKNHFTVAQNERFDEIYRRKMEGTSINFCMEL
Sulfotransferase 1B1, sequence (O43704 whole entry, canonical isoform): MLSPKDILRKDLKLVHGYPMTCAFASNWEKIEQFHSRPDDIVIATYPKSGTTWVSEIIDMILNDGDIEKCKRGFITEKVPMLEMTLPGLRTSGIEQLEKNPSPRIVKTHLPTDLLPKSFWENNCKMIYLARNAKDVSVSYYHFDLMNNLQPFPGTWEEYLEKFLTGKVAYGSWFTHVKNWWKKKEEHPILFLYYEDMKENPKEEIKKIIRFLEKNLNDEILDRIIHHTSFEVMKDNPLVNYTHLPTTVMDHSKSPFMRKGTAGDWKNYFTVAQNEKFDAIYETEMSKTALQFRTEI
Cytochrome P450 2C19, sequence (P33261 whole entry, canonical isoform): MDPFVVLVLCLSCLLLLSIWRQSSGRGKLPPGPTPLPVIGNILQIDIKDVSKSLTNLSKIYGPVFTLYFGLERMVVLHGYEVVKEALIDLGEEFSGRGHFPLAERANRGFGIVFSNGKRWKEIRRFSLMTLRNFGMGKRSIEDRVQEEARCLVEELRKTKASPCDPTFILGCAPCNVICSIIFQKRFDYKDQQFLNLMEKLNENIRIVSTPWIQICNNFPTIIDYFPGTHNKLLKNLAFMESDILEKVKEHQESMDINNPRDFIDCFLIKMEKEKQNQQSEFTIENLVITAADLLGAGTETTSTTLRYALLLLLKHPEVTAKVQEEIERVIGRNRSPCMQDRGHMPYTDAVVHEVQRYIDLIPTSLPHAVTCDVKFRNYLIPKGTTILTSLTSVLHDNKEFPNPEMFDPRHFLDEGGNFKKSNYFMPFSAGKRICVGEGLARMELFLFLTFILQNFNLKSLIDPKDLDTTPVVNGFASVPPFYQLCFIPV
Sulfotransferase 1A3, sequence (P0DMM9 whole entry): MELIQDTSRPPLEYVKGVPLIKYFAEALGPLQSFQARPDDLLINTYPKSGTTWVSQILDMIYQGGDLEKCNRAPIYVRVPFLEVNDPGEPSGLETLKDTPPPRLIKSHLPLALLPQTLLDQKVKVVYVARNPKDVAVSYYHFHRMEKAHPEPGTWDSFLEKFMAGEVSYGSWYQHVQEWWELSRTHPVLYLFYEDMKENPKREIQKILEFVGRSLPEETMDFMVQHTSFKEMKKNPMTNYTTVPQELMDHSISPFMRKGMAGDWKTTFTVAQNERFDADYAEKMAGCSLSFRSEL
Sulfotransferase 1A1, sequence (P50225 whole entry): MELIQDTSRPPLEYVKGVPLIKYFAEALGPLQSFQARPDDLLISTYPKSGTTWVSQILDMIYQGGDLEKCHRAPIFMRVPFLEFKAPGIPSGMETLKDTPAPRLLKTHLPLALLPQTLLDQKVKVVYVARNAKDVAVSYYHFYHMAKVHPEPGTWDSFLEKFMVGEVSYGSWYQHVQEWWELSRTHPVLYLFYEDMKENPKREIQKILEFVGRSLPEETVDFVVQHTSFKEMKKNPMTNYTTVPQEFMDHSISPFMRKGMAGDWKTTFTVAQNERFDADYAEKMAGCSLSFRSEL

For `CN1CCC[C@H]1c1cccnc1` [NICOTINE], the Activity entry on Cytochrome P450 2A6 [1] is “Substrate”.
On to `C[C@@H]1C[C@H]2[C@@H]3CCC4=CC(=O)C=C[C@]4(C)[C@@]3(F)[C@@H](O)C[C@]2(C)[C@@]1(O)C(=O)CO` [DEXAMETHASONE], for which the Activity result at Cytochrome P450 2A6 [2] is “Inducer”.
Regarding `O=[N+]([O-])c1ccc(O)cc1` [P-NITROPHENOL], the Activity result (at Sulfotransferase 1C4; on Sulfotransferase 1A1; in data set [3]; on Sulfotransferase 4A1; at Sulfotransferase 1A2; at Sulfotransferase 1C2) was “Substrate” throughout. In addition, the Activity result on Sulfotransferase 1A3, on Sulfotransferase 1B1 and at Cytochrome P450 2E1 [4] was “Substrate” each time.
`c1cn[nH]c1` [PYRAZOLE]: at Cytochrome P450 2A6 [2], the Activity entry is recorded as “Inducer”.
Turning to `CO[C@H]1/C=C/O[C@@]2(C)Oc3c(C)c(O)c4c(O)c(c(/C=N/N5CCN(C)CC5)c(O)c4c3C2=O)NC(=O)/C(C)=C\C=C\[C@H](C)[C@H](O)[C@@H](C)[C@@H](O)[C@@H](C)[C@H](OC(C)=O)[C@@H]1C` [RIFAMPIN], the Activity result at Cytochrome P450 2B6, on Cytochrome P450 2C19 and at Cytochrome P450 2C8 was “Inducer” throughout.
As for `CC(=O)[C@H]1CC[C@H]2[C@@H]3CC=C4C[C@@H](O)CC[C@]4(C)[C@H]3CC[C@]12C` [PREGNENOLONE], the Activity result on Sulfotransferase 1E1, on Sulfotransferase 2B1 [5] and on Sulfotransferase 2A1 was “Substrate” each time.
Consider `C[C@]12CC[C@H](O)CC1=CC[C@@H]1[C@@H]2CC[C@]2(C)C(=O)CC[C@@H]12` [PRASTERONE], for which the Activity entry at Sulfotransferase 1E1, on Sulfotransferase 2B1 [6], on Sulfotransferase 2B1 [5] and at Sulfotransferase 2A1 was “Substrate” in each case.
As for `CC(=O)N(O)c1ccc2c(c1)Cc1ccccc1-2`, the Activity entry on Sulfotransferase 1C4, at Sulfotransferase 1A2 and on Sulfotransferase 1C2 was “Substrate” in each case.
With `CC(C)CCC[C@@H](C)[C@H]1CC[C@H]2[C@@H]3CC=C4C[C@@H](O)CC[C@]4(C)[C@H]3CC[C@]12C` [CHOLESTEROL], the Activity result at Sulfotransferase 2B1 [6] was “Substrate”.
On to `O=c1ccc2ccccc2o1` [COUMARIN], for which, on Cytochrome P450 2A6 [1], the Activity result was “Substrate”.
For `NNC(=O)c1ccncc1` [ISONIAZID], the Activity entry at Cytochrome P450 2E1 [7] was “Inducer”.
As for `CCO` [ALCOHOL], on Cytochrome P450 2E1 [7], the Activity entry is reported as “Inducer”.
